Source: patent US20240051937A1, “ISOINDOLINONE AMIDE COMPOUNDS USEFUL TO TREAT DISEASES ASSOCIATED WITH GSPT1” (Monte Rosa Therapeutics, Inc., priority 2021, published 2024)
Read-outs that look alike come from different tables or passages of the source.

Legend:
[1] = molecular target: T1, Full length wild-type cereblon CRBN (Homo sapiens, UniProt Q96SW2); experiment: Fluorescence polarization (FP) assay indicating cereblon binding
T1 construct: Full length wild-type cereblon CRBN (80.0 nM, 10 μL) was incubated in assay buffer
T1 sequence (Q96SW2 whole entry): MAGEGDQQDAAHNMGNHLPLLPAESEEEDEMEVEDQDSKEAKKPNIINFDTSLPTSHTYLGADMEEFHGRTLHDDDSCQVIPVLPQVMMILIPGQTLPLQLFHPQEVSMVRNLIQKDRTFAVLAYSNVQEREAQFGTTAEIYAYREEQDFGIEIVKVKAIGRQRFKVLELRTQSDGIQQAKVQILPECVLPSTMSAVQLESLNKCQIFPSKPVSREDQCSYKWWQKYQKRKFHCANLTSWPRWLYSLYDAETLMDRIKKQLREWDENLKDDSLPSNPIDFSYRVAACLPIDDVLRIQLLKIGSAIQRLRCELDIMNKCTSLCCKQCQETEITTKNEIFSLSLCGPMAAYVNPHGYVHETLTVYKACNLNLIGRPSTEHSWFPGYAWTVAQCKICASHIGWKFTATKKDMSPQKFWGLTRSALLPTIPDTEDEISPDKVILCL
Description: Protocol for Fluorescent Polarization Assay
Compound activity was monitored in a fluorescence polarization (FP) homogeneous assay using 1-[5-({2-[2-(2-{[2-(2,6-dioxopiperidin-3-yl)-1,3-dioxo-2,3-dihydro-1H-isoindol-4-yl]oxy}acetamido)ethoxy]ethyl}carbamoyl)pentyl]-3,3-dimethyl-2-[(1E,3E)-5-[(2E)-1,3,3-trimethyl-5-sulfo-2,3-dihydro-1H-indol-2-ylidene]penta-1,3-dien-1-yl]-3H-indol-1-ium-5-sulfonate as a fluorescent probe. Unless otherwise stated, all reagents were purchased from Sigma Aldrich. Enzymatic reactions were conducted in Perkin-Elmer Black 384 well ProxiPlate Plus (catalogue no. 6008269) in 10 μL total volume. Full length wild-type cereblon CRBN (80.0 nM, 10 μL) was incubated in assay buffer containing 20 mM HEPES (pH 8.0), […], 0.5 mM TCEP and 0.05% Tween 20 in the presence or absence of compound (300 nL). Inhibitors were stored as 10 mM DMSO stocks in an inert environment (low humidity, dark, low oxygen, room temperature) using the Storage Pod System. Compounds and DMSO were dispensed using the Echo E5XX (Labcyte Inc. USA) to give concentrations from 300 to 0.937 or 3000 to 9.3 nM in a 12 data point curve. […] Following incubation at room temperature for 30 min, the assay was initiated by dispensing the probe to a final concentration of 5 nM (2.5 nL of a 20 μM stock) using the Echo E5XX. FP was measured after a period of 12 hours using a Pherastar plate reader (BMG Labtech, Germany) exciting at 590 nm and measuring the amount of parallel and perpendicular light at 675 nm. The FP signal was subsequently normalized to the no-compound control (i.e., DMSO). Analysis and IC50 values were derived using Dotmatics (Dotmatics UK) software.

GSPT1 = GSPT1 (Homo sapiens, UniProt P15170+Q96SW2); experiment: Immunofluorescence assay for GSPT1 degradation in CAL-Si cells; assay type: cell-based; set-up: CAL-Si cells were purchased from DSMZ (cat. Number ACC302); host or cells: CAL-Si (CAL-51) cells; details: 6 hours treatment
Chain of GSPT1 (P15170 whole entry): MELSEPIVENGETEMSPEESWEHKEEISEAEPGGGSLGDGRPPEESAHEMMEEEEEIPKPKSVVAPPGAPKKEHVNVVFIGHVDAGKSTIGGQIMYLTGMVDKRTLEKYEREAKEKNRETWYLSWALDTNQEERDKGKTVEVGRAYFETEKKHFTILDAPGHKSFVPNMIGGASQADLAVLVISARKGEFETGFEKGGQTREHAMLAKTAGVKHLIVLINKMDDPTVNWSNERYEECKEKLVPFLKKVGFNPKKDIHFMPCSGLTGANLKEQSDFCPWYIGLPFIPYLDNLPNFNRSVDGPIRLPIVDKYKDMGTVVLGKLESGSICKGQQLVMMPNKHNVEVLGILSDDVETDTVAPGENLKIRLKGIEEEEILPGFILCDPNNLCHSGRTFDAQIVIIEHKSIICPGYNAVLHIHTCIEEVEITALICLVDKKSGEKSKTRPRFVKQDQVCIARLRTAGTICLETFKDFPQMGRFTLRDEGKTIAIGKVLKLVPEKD
Chain of GSPT1 (Q96SW2 whole entry): as the sequence (Q96SW2 whole entry) above
Chain of GSPT1 (Q16531 whole entry partner): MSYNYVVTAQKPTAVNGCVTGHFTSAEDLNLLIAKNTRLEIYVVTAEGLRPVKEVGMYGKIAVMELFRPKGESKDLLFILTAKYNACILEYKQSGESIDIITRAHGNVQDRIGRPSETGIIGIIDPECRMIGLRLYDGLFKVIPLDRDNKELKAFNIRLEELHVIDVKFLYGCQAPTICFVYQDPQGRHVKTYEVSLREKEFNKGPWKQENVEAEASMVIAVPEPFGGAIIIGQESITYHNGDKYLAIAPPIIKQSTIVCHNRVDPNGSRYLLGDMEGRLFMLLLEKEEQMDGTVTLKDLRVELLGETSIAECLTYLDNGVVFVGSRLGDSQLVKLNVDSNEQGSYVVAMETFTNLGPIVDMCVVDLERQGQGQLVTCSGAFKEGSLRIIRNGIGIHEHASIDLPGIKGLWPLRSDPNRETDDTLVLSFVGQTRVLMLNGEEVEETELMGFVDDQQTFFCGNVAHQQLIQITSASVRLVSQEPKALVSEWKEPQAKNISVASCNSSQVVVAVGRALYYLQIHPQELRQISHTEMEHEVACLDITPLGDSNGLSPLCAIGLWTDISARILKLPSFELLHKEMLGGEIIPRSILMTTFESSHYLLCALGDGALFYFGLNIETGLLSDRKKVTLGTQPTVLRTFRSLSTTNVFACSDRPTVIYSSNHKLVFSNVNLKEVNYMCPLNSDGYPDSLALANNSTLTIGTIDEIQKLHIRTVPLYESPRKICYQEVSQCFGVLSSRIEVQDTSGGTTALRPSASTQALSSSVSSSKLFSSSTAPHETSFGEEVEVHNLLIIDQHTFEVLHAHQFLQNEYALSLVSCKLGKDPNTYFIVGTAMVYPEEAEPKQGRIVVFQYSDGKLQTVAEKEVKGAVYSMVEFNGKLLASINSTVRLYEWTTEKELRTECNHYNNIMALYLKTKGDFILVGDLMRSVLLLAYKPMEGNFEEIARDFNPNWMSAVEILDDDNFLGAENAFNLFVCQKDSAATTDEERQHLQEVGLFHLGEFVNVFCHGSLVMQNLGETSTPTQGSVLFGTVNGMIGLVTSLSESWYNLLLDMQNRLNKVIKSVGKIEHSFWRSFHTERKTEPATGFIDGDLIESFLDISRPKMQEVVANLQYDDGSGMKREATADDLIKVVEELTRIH
Procedure: The representative compounds were tested in an immunofluorescence assay for their activity to bind to degrade GSPT1. CAL-Si cells were purchased from DSMZ (cat. Number ACC302), sub-cultured in 90% Dulbecco's MEM (4.5 g/L glucose, Gibco 11965)+10% […] inactivated FBS (BioConcept, 2-01F136I) and incubated at 37° C., 5% CO2. For the assay, imaging microtiterplate Cell Carrier 96 Ultra (Perkin Elmer 6055302) were pre-coated with Fibronectin (Sigma F085, 30 μl at 0.2 μg/ml) in PBS (100 μl, Gibco 14190) for 45 min at room temperature, rinsed with PBS and CAL-Si cells (30K cells/well) were plated and let to adhere overnight. Cells were treated with compounds typically using a serial dilution ranging from 30 μM to 0.1 nM for 6 hours. Compounds were stored at 10 mM DMSO stocks. Vehicle (DMSO), positive (CC-885, 10 μM) and rescue controls (positive control plus 0.2 μM bortezomib) were also included at this stage. Cells were subsequently rinsed with PBS and fixed in 10% Formalin solution (50 μl, Sigma HT5011)) for 20 mins at room temperature. Following three consecutive PBS washes (100 μl), cells were permeabilized in 0.1% Triton X-100 in PBS (Sigma 93443, 50 μl) for 15 mins at room temperature. Following three further PBS washes, […] blocking buffer (1% BSA, Sigma A4503, in PBS) was added for 45 min for signal-to-noise reduction.
Primary antibody (human GSPT1, Sigma HPA052488) was diluted in blocking buffer (dil.1/300, 35 μl/well) and incubated with the cells overnight at 4° C. After three PBS washes, Alexa-fluor 488 coupled secondary antibodies (Invitrogen, A32731, dil.1/1000), Alexa-fluor 647-Phalloidin (Invitrogen, A22287, dil.1/200) and DAPI (Thermo, #62248, dil.1/1000) were diluted in blocking buffer and incubated with the samples for 2 hours at room temperature. After three final PBS washes, samples were conserved in […] PBS in the dark, until measurement. Image acquisition was performed on the Operetta High-Content Imager (Perkin-Elmer). Fluorescence intensity of Alexa-Fluor 488 (GSPT1), Alexa-Fluor 647 (Actin) and DAPI (Nucleus) were measured. For the determination of GSPT1 DC50 values, a custom algorithm implemented in the PerkinElmer image analysis software Harmony-Acapella® was developed. After user-defined setting of adjustment parameters, the analysis was run identically without human intervention for all image fields. DAPI staining of the nuclei was used to determine the location of cells using standard nuclei detection modules. Segmentation artifacts were removed by threshold-based filters for area, roundness and intensity. The outline of the cells was determined analogously from the sum of the normalized, smoothed DAPI and Actin channel, starting from each nucleus.
The Alexa-Fluor 488 (GSPT1) signal intensity in each cell was finally measured, in order to obtain a Mean intensity per cell. GSPT1 degradation (DC50) was calculated after normalization to controls and data import in CDD vault Database, using non-linear regression.

[2] = cereblon binding, CRBN 80.0 nM, probe 5 nM, FP read after 12 hours, read-out: rFP IC50
[3] = fluorescence polarization assay, read-out: IC50 value (cereblon binding)
[4] = read-out: Code: activity for GSPT1 degradation (DC50)
[5] = GSPT1 degradation, read-out: DC50

Structure (SMILES) | IC50 [1, 2] | IC50 [1, 3] | DC50 (GSPT1; [4]) | DC50 (GSPT1; [5])
Cc1c(Cl)cc(NC(=O)CCc2ccc3c(c2)C(=O)N(C2CCC(=O)NC2=O)C3)cc1OCC1CCN(C)C1 (centres unmarked) [Compound 61] | ≤ 500 nM | < 1100 nM | > 300 nM | 
COc1ccc(Cl)cc1NC(=O)CCc1ccc2c(c1)C(=O)N(C1CCC(=O)NC1=O)C2 (centres unmarked) [Compound 14] | 500 to 1100 nM | < 1100 nM | > 300 nM | 
Cc1c(Cl)cc(NC(=O)CCc2ccc3c(c2)C(=O)N(C2CCC(=O)NC2=O)C3)cc1CN1CC2CC1CO2 (centres unmarked) [Compound 22] | 500 to 1100 nM | < 1100 nM | 30 to 300 nM | 
O=C1CCC(N2Cc3ccc(CCC(=O)Nc4cc(OC(F)(F)F)ccn4)cc3C2=O)C(=O)N1 (centres unmarked) [Compound 59] | 500 to 1100 nM | < 1100 nM | > 300 nM | 
Cc1cc(C)cc(NC(=O)CCc2ccc3c(c2)C(=O)N(C2CCC(=O)NC2=O)C3)c1 (centres unmarked) [Compound 7] | 500 to 1100 nM | < 1100 nM | ≤ 30 nM | 25 nM
Cc1c(F)cc(NC(=O)CCc2ccc3c(c2)C(=O)N(C2CCC(=O)NC2=O)C3)cc1CN1CCOCC1 (centres unmarked) [Compound 42] | 1100 to 1700 nM |  | ≤ 30 nM | 30 nM
O=C1CCC(N2Cc3ccc(CCC(=O)Nc4cc(Cl)cc(OCC5CCNC5)c4)cc3C2=O)C(=O)N1 (centres unmarked) [Compound 25] | 500 to 1100 nM | < 1100 nM | > 300 nM | 
O=C1CCC(N2Cc3ccc(CCC(=O)NC4CCN(c5ccccn5)CC4)cc3C2=O)C(=O)N1 (centres unmarked) [Compound 12] | 500 to 1100 nM | < 1100 nM | > 300 nM | 
O=C1CCC(N2Cc3ccc(CCC(=O)Nc4cnc5c(c4)CCC5)cc3C2=O)C(=O)N1 (centres unmarked) [Compound 49] | 1100 to 1700 nM |  | > 300 nM | 
CN1CCC(COc2cc(Cl)cc(NC(=O)CCc3ccc4c(c3)C(=O)N(C3CCC(=O)NC3=O)C4)c2)C1 (centres unmarked) [Compound 37] | 500 to 1100 nM | < 1100 nM | > 300 nM | 
O=C1CCC(N2Cc3ccc(CCC(=O)Nc4ccc(N5CCCCC5)nc4)cc3C2=O)C(=O)N1 (centres unmarked) [Compound 20] | 500 to 1100 nM | < 1100 nM | 30 to 300 nM | 
O=C1CCC(N2Cc3ccc(CCC(=O)Nc4cnc5c(c4)COCC5)cc3C2=O)C(=O)N1 (centres unmarked) [Compound 48] | 1100 to 1700 nM |  | > 300 nM | 
CCc1cc(NC(=O)CCc2ccc3c(c2)C(=O)N(C2CCC(=O)NC2=O)C3)cc(C)n1 (centres unmarked) [Compound 57] | ≤ 500 nM | < 1100 nM | > 300 nM | 
CCOc1cc(NC(=O)CCc2ccc3c(c2)C(=O)N(C2CCC(=O)NC2=O)C3)ccc1C (centres unmarked) [Compound 32] | 500 to 1100 nM | < 1100 nM | 30 to 300 nM | 
O=C1CCC(N2Cc3ccc(CCC(=O)Nc4ccc(-c5ccccc5)nc4)cc3C2=O)C(=O)N1 (centres unmarked) [Compound 34] | ≤ 500 nM | < 1100 nM | ≤ 30 nM | 13 nM
COc1cc(C)c(Cl)cc1NC(=O)CCc1ccc2c(c1)C(=O)N(C1CCC(=O)NC1=O)C2 (centres unmarked) [Compound 10] | 500 to 1100 nM | < 1100 nM | > 300 nM | 
Cc1c(Cl)cc(NC(=O)CCc2ccc3c(c2)C(=O)N(C2CCC(=O)NC2=O)C3)cc1OC1CCNC1 (centres unmarked) [Compound 40, N-(3-chloro-4-methyl-5-(pyrrolidin-3-yloxy)phenyl)-3-(2-(2,6-dioxopiperidin-3-yl)-3-oxoisoindolin-5-yl)propanamide] | ≤ 500 nM | < 1100 nM | > 300 nM | 
Cc1c(CN2CCOCC2)cc(NC(=O)CCc2ccc3c(c2)C(=O)N(C2CCC(=O)NC2=O)C3)cc1OC(F)F (centres unmarked) [Compound 35] | 500 to 1100 nM | < 1100 nM | ≤ 30 nM | 12 nM
O=C1CCC(N2Cc3ccc(CCC(=O)NC4CCCC4)cc3C2=O)C(=O)N1 (centres unmarked) [Compound 17] | 500 to 1100 nM | < 1100 nM | > 300 nM | 
O=C1CCC(N2Cc3ccc(CCC(=O)Nc4ccc(C5CC5)cc4)cc3C2=O)C(=O)N1 (centres unmarked) [Compound 38] | ≤ 500 nM | < 1100 nM | > 300 nM | 
COc1cc(Cl)ccc1NC(=O)CCc1ccc2c(c1)C(=O)N(C1CCC(=O)NC1=O)C2 (centres unmarked) [Compound 16] | ≤ 500 nM | < 1100 nM | > 300 nM | 
CC1(c2ccc(NC(=O)CCc3ccc4c(c3)C(=O)N(C3CCC(=O)NC3=O)C4)cc2)COC1 (centres unmarked) [Compound 55] | 1100 to 1700 nM |  | > 300 nM | 
O=C1CCC(N2Cc3ccc(CCC(=O)Nc4cc(Cl)cc(OC(F)(F)F)c4)cc3C2=O)C(=O)N1 (centres unmarked) [Compound 11] | > 1700 nM |  | ≤ 30 nM | 17 nM
O=C(CCc1ccc2c(c1)C(=O)N(C1CCC(=O)NC1=O)C2)NCC1CC1 (centres unmarked) [Compound 9] | 500 to 1100 nM | < 1100 nM | > 300 nM | 
CC(C)(C)c1ccc(NC(=O)CCc2ccc3c(c2)C(=O)N(C2CCC(=O)NC2=O)C3)cn1 (centres unmarked) [Compound 41] | 1100 to 1700 nM |  | ≤ 30 nM | 26 nM
O=C1CCC(N2Cc3ccc(CCC(=O)Nc4cc(F)cc(OC(F)F)c4)cc3C2=O)C(=O)N1 (centres unmarked) [Compound 28] | 500 to 1100 nM | < 1100 nM | 30 to 300 nM | 
COc1cc(NC(=O)CCc2ccc3c(c2)C(=O)N(C2CCC(=O)NC2=O)C3)ccc1C (centres unmarked) [Compound 33] | 500 to 1100 nM | < 1100 nM | 30 to 300 nM | 
O=C1CCC(N2Cc3ccc(CCC(=O)N4CCCC4)cc3C2=O)C(=O)N1 (centres unmarked) [Compound 15] | 1100 to 1700 nM |  | > 300 nM | 
